Assay results from ChEMBL document CHEMBL3991601, “The target landscape of clinical kinase drugs” (Science, 2017).
Activity calls are given as the source filed them.
Also: in the data inactive means no Kd found up to 30 µM.

The molecules below were run against Protein kinase C theta type (Homo sapiens, UniProt Q04759).
Chain of Protein kinase C theta type (Q04759 whole entry): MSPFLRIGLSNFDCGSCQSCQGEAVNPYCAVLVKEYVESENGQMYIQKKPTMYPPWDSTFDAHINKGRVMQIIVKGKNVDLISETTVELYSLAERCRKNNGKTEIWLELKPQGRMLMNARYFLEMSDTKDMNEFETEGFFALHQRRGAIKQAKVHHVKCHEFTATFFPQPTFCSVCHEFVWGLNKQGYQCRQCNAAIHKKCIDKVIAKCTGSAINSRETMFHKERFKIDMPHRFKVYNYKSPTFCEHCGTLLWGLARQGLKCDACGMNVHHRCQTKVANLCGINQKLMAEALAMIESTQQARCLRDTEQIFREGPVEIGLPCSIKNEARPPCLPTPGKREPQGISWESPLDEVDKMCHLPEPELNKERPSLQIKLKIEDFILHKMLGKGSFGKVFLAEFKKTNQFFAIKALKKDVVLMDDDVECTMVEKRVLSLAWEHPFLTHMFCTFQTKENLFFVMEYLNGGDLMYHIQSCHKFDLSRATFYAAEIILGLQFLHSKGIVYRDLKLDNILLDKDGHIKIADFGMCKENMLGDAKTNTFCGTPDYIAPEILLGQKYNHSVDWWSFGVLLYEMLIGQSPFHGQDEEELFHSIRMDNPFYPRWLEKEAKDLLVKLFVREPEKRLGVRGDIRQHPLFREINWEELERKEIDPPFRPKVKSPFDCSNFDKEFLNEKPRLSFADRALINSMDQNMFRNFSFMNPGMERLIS
For `Cc1cc(-c2cc(O)ccc2Cl)cc2nnc(Nc3ccc(OCCN4CCCC4)cc3)nc12`, the Kd was > 30 µM (inactive).
With `CCN1CCN(Cc2ccc(-c3cc4c(N[C@H](C)c5ccccc5)ncnc4[nH]3)cc2)CC1` [AEE-788] the Kd was > 30 µM (inactive).
`COc1cc(CCc2cc(NC(=O)c3ccc(N4C[C@@H](C)N[C@@H](C)C4)cc3)n[nH]2)cc(OC)c1` [AZD-4547] was tested, and the Kd was > 30 µM (inactive).
For `Cc1cc([C@@H](C)Nc2ccccc2C(=O)O)c2nc(N3CCOCC3)cc(=O)n2c1` [AZD-6482], the Kd was > 30 µM (inactive).

What follows are molecules tested against Epidermal growth factor receptor (Homo sapiens, UniProt P00533).
Chain of Epidermal growth factor receptor (P00533 whole entry): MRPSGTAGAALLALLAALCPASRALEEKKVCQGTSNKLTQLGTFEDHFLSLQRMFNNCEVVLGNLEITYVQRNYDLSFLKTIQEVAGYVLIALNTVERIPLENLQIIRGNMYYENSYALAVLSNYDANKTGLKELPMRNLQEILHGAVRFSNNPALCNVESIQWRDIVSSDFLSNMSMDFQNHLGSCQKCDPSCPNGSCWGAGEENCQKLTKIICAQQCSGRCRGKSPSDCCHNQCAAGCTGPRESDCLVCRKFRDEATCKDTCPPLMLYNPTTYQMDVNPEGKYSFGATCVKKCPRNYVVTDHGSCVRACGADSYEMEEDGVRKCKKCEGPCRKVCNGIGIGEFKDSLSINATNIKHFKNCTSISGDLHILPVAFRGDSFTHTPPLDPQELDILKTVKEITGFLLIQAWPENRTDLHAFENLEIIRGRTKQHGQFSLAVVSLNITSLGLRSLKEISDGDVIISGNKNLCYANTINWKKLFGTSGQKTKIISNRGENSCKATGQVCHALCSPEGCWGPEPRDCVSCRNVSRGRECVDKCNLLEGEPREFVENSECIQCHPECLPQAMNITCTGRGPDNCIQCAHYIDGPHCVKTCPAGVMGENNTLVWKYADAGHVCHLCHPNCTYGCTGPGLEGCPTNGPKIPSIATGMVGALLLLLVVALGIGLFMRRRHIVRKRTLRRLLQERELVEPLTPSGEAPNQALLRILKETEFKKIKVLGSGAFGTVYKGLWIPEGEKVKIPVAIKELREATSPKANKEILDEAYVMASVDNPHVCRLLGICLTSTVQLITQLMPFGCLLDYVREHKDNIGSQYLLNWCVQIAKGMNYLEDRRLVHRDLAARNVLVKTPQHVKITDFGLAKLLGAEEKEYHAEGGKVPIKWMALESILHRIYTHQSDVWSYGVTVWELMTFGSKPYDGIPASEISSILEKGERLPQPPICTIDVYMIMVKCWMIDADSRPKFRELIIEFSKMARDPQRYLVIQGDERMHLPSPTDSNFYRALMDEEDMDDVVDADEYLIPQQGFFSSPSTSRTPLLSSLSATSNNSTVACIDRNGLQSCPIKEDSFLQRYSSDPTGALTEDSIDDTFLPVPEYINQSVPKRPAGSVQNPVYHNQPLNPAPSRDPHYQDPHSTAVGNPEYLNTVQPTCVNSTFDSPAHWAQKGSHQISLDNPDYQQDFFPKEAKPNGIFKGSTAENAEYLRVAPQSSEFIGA
`Cc1cc(-c2cc(O)ccc2Cl)cc2nnc(Nc3ccc(OCCN4CCCC4)cc3)nc12` was tested, and the Kd was > 30 µM (inactive).
For `COc1cc(CCc2cc(NC(=O)c3ccc(N4C[C@@H](C)N[C@@H](C)C4)cc3)n[nH]2)cc(OC)c1` [AZD-4547], the Kd was > 30 µM (inactive).
With `Cc1cc([C@@H](C)Nc2ccccc2C(=O)O)c2nc(N3CCOCC3)cc(=O)n2c1` [AZD-6482] the Kd was > 30 µM (inactive).

What follows are molecules tested against Serine/threonine-protein kinase MRCK gamma (Homo sapiens, UniProt Q6DT37).
Chain of Serine/threonine-protein kinase MRCK gamma (Q6DT37 whole entry): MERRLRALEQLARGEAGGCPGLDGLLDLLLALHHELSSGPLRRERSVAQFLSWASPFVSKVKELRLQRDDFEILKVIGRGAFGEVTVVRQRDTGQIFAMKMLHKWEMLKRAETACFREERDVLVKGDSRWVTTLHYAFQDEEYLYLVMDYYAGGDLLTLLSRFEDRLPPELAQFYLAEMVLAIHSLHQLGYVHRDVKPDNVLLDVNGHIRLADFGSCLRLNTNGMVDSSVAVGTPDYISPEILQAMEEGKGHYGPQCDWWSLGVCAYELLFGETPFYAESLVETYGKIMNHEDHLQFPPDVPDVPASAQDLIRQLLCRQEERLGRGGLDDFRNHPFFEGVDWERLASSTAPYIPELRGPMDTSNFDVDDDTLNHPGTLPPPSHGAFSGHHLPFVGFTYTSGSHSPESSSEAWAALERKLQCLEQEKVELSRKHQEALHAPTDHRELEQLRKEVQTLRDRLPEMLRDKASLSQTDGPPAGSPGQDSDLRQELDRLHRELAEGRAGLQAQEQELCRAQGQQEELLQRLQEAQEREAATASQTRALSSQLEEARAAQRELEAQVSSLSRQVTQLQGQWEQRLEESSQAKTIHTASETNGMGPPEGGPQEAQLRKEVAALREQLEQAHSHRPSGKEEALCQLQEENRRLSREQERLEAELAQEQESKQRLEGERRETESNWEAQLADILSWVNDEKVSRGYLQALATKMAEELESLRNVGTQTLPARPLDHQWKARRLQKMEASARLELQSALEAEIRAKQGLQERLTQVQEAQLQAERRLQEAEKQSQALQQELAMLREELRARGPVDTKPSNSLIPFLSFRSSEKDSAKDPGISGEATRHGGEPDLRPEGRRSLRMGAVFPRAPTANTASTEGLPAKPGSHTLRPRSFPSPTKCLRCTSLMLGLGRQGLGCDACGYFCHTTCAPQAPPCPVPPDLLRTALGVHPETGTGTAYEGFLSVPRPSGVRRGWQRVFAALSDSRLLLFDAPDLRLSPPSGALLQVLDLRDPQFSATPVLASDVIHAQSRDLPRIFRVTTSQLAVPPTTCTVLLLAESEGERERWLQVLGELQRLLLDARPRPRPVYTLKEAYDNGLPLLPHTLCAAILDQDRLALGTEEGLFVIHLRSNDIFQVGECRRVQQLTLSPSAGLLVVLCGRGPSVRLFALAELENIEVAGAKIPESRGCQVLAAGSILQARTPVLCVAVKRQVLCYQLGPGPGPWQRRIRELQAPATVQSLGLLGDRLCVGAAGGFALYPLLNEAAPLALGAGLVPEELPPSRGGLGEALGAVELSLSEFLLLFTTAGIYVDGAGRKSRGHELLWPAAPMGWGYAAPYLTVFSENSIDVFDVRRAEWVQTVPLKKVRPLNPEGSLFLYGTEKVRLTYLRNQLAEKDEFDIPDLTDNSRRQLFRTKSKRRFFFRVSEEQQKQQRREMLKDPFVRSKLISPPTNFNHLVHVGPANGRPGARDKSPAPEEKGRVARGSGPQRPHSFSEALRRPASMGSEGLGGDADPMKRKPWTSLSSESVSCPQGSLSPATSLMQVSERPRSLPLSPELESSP
With `Cc1cc(-c2cc(O)ccc2Cl)cc2nnc(Nc3ccc(OCCN4CCCC4)cc3)nc12` the Kd was > 30 µM (inactive).
`CCN1CCN(Cc2ccc(-c3cc4c(N[C@H](C)c5ccccc5)ncnc4[nH]3)cc2)CC1` [AEE-788] was tested, and the Kd was > 30 µM (inactive).
`COc1cc(CCc2cc(NC(=O)c3ccc(N4C[C@@H](C)N[C@@H](C)C4)cc3)n[nH]2)cc(OC)c1` [AZD-4547] was tested, and the Kd was > 30 µM (inactive).
For `Cc1cc([C@@H](C)Nc2ccccc2C(=O)O)c2nc(N3CCOCC3)cc(=O)n2c1` [AZD-6482], the Kd was > 30 µM (inactive).

These molecules were tested against T1, Thyroid hormone receptor-associated protein 3 (Homo sapiens, UniProt Q9Y2W1).
T1 sequence (Q9Y2W1 whole entry): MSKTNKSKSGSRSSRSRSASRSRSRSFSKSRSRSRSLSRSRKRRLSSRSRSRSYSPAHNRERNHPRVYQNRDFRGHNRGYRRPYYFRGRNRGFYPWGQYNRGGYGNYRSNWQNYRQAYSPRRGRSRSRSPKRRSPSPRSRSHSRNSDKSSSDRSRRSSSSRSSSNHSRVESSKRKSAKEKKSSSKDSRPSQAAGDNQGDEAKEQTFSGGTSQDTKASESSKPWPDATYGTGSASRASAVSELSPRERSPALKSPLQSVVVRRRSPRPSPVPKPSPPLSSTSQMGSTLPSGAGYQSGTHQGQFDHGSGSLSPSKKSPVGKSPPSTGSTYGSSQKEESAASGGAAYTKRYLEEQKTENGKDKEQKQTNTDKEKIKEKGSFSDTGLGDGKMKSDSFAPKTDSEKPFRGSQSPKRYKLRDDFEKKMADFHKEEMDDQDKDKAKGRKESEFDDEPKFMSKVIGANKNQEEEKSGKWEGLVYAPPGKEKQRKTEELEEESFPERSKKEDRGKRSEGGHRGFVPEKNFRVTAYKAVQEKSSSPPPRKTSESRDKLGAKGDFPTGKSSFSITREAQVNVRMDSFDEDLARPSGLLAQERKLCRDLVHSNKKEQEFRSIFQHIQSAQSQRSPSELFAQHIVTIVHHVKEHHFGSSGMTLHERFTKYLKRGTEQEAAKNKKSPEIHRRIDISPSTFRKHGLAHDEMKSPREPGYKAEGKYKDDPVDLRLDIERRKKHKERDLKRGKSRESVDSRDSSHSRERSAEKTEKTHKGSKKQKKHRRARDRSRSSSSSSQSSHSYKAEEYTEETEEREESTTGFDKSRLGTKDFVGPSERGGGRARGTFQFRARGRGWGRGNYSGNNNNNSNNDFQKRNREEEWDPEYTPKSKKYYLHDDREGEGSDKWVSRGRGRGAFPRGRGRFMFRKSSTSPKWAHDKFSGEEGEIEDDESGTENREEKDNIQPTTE
In the case of `CCN1CCN(Cc2ccc(-c3cc4c(N[C@H](C)c5ccccc5)ncnc4[nH]3)cc2)CC1` [AEE-788], the Kd is reported as > 30 µM (inactive).
In the case of `COc1cc(CCc2cc(NC(=O)c3ccc(N4C[C@@H](C)N[C@@H](C)C4)cc3)n[nH]2)cc(OC)c1` [AZD-4547], the Kd is reported as > 30 µM (inactive).
With `Cc1cc([C@@H](C)Nc2ccccc2C(=O)O)c2nc(N3CCOCC3)cc(=O)n2c1` [AZD-6482] the Kd was > 30 µM (inactive).

What follows are molecules tested against Dual specificity protein kinase CLK2 (Homo sapiens, UniProt P49760).
Chain of Dual specificity protein kinase CLK2 (P49760 whole entry): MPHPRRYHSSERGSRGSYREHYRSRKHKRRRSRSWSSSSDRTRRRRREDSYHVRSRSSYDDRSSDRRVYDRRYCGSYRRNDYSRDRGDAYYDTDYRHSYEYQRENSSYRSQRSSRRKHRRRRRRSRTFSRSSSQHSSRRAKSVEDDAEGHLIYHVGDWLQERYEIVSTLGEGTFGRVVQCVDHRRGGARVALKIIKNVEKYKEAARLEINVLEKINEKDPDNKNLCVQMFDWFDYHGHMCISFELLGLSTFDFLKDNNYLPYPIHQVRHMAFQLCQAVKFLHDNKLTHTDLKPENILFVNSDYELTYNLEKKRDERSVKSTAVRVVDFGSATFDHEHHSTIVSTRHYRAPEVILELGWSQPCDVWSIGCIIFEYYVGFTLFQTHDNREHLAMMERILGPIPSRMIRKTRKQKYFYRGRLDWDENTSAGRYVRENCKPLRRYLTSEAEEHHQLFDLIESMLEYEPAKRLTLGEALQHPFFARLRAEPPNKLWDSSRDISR
For `Cc1cc(-c2cc(O)ccc2Cl)cc2nnc(Nc3ccc(OCCN4CCCC4)cc3)nc12`, the Kd was > 30 µM (inactive).
For `CCN1CCN(Cc2ccc(-c3cc4c(N[C@H](C)c5ccccc5)ncnc4[nH]3)cc2)CC1` [AEE-788], the Kd was > 30 µM (inactive).
In the case of `COc1cc(CCc2cc(NC(=O)c3ccc(N4C[C@@H](C)N[C@@H](C)C4)cc3)n[nH]2)cc(OC)c1` [AZD-4547], the Kd is reported as > 30 µM (inactive).
In the case of `Cc1cc([C@@H](C)Nc2ccccc2C(=O)O)c2nc(N3CCOCC3)cc(=O)n2c1` [AZD-6482], the Kd is reported as > 30 µM (inactive).

The molecules below were run against T2, Phosphatidylinositol 5-phosphate 4-kinase type-2 alpha (Homo sapiens, UniProt P48426).
T2 sequence (P48426 whole entry): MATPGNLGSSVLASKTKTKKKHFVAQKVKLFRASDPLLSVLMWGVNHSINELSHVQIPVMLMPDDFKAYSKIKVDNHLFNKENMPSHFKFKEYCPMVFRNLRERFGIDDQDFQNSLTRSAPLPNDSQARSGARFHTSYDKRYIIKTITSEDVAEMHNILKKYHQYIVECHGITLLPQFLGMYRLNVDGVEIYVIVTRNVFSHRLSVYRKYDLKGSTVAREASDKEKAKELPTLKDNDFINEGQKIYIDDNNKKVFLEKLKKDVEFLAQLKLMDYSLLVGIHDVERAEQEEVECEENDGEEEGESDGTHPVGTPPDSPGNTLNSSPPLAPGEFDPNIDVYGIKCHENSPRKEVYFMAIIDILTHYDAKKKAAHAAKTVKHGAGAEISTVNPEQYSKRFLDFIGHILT
`Cc1cc(-c2cc(O)ccc2Cl)cc2nnc(Nc3ccc(OCCN4CCCC4)cc3)nc12` was tested, and the Kd was > 30 µM (inactive).
With `COc1cc(CCc2cc(NC(=O)c3ccc(N4C[C@@H](C)N[C@@H](C)C4)cc3)n[nH]2)cc(OC)c1` [AZD-4547] the Kd was > 30 µM (inactive).

The molecules below were run against Proto-oncogene tyrosine-protein kinase receptor Ret (Homo sapiens, UniProt P07949).
Chain of Proto-oncogene tyrosine-protein kinase receptor Ret (P07949 whole entry): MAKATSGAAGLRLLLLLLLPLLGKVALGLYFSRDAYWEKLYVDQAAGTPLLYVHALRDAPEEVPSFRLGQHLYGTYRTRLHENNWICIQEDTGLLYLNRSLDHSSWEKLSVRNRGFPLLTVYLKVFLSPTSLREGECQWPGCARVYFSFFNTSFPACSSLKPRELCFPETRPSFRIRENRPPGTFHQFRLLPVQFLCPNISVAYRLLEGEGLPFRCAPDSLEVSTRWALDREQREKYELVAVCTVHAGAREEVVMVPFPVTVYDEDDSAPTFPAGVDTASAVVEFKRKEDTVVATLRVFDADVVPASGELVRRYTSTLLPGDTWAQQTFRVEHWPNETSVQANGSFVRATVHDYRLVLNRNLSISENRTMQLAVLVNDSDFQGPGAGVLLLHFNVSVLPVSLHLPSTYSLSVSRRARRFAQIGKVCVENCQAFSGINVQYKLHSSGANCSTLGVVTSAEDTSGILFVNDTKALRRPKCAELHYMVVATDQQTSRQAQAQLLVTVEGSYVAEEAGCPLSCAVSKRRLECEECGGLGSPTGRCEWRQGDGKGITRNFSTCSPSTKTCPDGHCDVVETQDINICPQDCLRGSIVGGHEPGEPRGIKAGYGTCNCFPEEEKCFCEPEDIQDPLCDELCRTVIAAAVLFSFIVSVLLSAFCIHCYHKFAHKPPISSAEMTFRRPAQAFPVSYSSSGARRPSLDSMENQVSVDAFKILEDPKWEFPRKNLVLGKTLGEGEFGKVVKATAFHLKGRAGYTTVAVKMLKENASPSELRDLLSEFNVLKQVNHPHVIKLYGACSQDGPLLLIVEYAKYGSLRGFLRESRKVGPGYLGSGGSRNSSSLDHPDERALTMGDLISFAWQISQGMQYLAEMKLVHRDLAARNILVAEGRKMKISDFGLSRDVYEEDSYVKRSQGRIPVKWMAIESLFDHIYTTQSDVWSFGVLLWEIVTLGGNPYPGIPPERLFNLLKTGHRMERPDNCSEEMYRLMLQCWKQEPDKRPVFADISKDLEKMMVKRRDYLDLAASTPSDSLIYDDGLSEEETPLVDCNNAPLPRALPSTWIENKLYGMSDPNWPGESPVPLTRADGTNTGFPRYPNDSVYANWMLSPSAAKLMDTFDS
With `Cc1cc(-c2cc(O)ccc2Cl)cc2nnc(Nc3ccc(OCCN4CCCC4)cc3)nc12` the Kd was 0.001 µM (active).
With `COc1cc(CCc2cc(NC(=O)c3ccc(N4C[C@@H](C)N[C@@H](C)C4)cc3)n[nH]2)cc(OC)c1` [AZD-4547] the Kd was 0.029 µM (active).
With `Cc1cc([C@@H](C)Nc2ccccc2C(=O)O)c2nc(N3CCOCC3)cc(=O)n2c1` [AZD-6482] the Kd was > 30 µM (inactive).

What follows are molecules tested against Phosphatidylethanolamine-binding protein 1 (Homo sapiens, UniProt P30086).
With `CCN1CCN(Cc2ccc(-c3cc4c(N[C@H](C)c5ccccc5)ncnc4[nH]3)cc2)CC1` [AEE-788] the Kd was > 30 µM (inactive).
With `Cc1cc([C@@H](C)Nc2ccccc2C(=O)O)c2nc(N3CCOCC3)cc(=O)n2c1` [AZD-6482] the Kd was > 30 µM (inactive).

Each molecule was assayed against Serine/threonine-protein kinase PLK1 (Homo sapiens, UniProt P53350).
`Cc1cc(-c2cc(O)ccc2Cl)cc2nnc(Nc3ccc(OCCN4CCCC4)cc3)nc12` was tested, and the Kd was > 30 µM (inactive).
For `CCN1CCN(Cc2ccc(-c3cc4c(N[C@H](C)c5ccccc5)ncnc4[nH]3)cc2)CC1` [AEE-788], the Kd was > 30 µM (inactive).
`COc1cc(CCc2cc(NC(=O)c3ccc(N4C[C@@H](C)N[C@@H](C)C4)cc3)n[nH]2)cc(OC)c1` [AZD-4547] was tested, and the Kd was > 30 µM (inactive).
With `Cc1cc([C@@H](C)Nc2ccccc2C(=O)O)c2nc(N3CCOCC3)cc(=O)n2c1` [AZD-6482] the Kd was > 30 µM (inactive).
